Measured values as given in patent US4248863A, “Antibiotics saframycins A, B, C, D and E and process for producing the same” (priority 1977, dated 1981).
Values after ≈ are worked out from the molar mass of the structure shown.

How the values were obtained:
Salmonella typhimurium = assay: Antimicrobial spectrum, MIC (Table 4); type: cell-based; conditions: Salmonella enterica, TYPHIMURIUM; 1% glucose nutrient agar, 37° C., 24 or 48 hours; read-out: MIC
Staphylococcus albus = assay: Antimicrobial spectrum, MIC (Table 4); type: cell-based; conditions: Staphylococcus; 1% glucose nutrient agar, 37° C., 24 or 48 hours; read-out: MIC
Candida albicans = assay: Antimicrobial spectrum, MIC (Table 4); conditions: Candida albicans, 48 h
Mucor mucedo = assay: Antimicrobial spectrum, MIC (Table 4); conditions: Mucor mucedo, 48 h
Bacillus cereus = assay: Antimicrobial spectrum, MIC (Table 4); type: cell-based; conditions: Bacillus cereus; 1% glucose nutrient agar, 37° C., 24 or 48 hours; read-out: MIC
Corynebacterium xerosis = assay: Antimicrobial spectrum, MIC (Table 4); type: cell-based; conditions: Corynebacterium xerosis; 1% glucose nutrient agar, 37° C., 24 or 48 hours; read-out: MIC
[1] = test system: Shigella dysenteriae Shiga; assay: microbe, parasite or virus in culture; type: cell-based; conditions: Shigella dysenteriae
[2] = test system: uterine cervical carcinoma; assay: Effect against human tumors heterotransplanted to nude mice; type: in vivo, human tumor in nude mice; conditions: human tumor heterotransplanted to nude mice
Ehrlich ascites tumor = assay: Activity against Ehrlich ascites tumor in DDY mice; type: in vivo; conditions: 1×10^5 cells, initiated 24 hours after implantation, 4 days
[3] = test system: Streptococcus pyogenes 090R; assay: Antimicrobial spectrum, MIC (Table 4); type: cell-based; conditions: Streptococcus pyogenes, 090R; blood agar, 37° C., 24 or 48 hours; read-out: MIC
Penicillium glaucum = assay: Antimicrobial spectrum, MIC (Table 4); conditions: Penicillium, 48 h
Streptococcus pyogenes = assay: Antimicrobial spectrum, MIC (Table 4); type: cell-based; conditions: Streptococcus pyogenes; blood agar, 37° C., 24 or 48 hours; read-out: MIC
Mycobacterium sp. 607 = assay: Antimicrobial spectrum, MIC (Table 4); type: cell-based; conditions: Mycobacterium, SP.607; 3% glycerol nutrient agar for acid-fast bacteria, 37° C., 24 or 48 hours; read-out: MIC
Brucella abortus = assay: microbe, parasite or virus in culture; type: cell-based; conditions: Brucella abortus
Pseudomonas aeruginosa = assay: Antimicrobial spectrum, MIC (Table 4); type: cell-based; conditions: Pseudomonas aeruginosa; 1% glucose nutrient agar, 37° C., 24 or 48 hours; read-out: MIC
stomach carcinoma = assay: Effect against human tumors heterotransplanted to nude mice; type: in vivo, human tumor in nude mice; conditions: human tumor heterotransplanted to nude mice
Saccharomyces cerevisiae = assay: Antimicrobial spectrum, MIC (Table 4); conditions: Saccharomyces cerevisiae, 48 h
[4] = test system: Staphylococcus salivarius; assay: Antimicrobial spectrum, MIC (Table 4); type: cell-based; conditions: Staphylococcus; 1% glucose nutrient agar, 37° C., 24 or 48 hours; read-out: MIC
Aspergillus oryzae = assay: Antimicrobial spectrum, MIC (Table 4); conditions: Aspergillus oryzae, 48 h
Mycobacterium phlei = assay: Antimicrobial spectrum, MIC (Table 4); type: cell-based; conditions: Mycolicibacterium phlei; 3% glycerol nutrient agar for acid-fast bacteria, 37° C., 24 or 48 hours; read-out: MIC
Nocardia asteroides = assay: Antimicrobial spectrum, MIC (Table 4); type: cell-based; conditions: Nocardia asteroides; 37° C., 24 or 48 hours; read-out: MIC
[5] = test system: Staphylococcus aureus 209P; assay: Antimicrobial spectrum, MIC (Table 4); type: cell-based; conditions: Staphylococcus aureus, 209P; 1% glucose nutrient agar, 37° C., 24 or 48 hours; read-out: MIC
Mycobacterium avium = assay: Antimicrobial spectrum, MIC (Table 4); type: cell-based; conditions: Mycobacterium avium; 3% glycerol nutrient agar for acid-fast bacteria, 37° C., 24 or 48 hours; read-out: MIC
Micrococcus luteus = assay: Antimicrobial spectrum, MIC (Table 4); type: cell-based; conditions: Micrococcus luteus; 1% glucose nutrient agar, 37° C., 24 or 48 hours; read-out: MIC
Staphylococcus citreus = assay: Antimicrobial spectrum, MIC (Table 4); type: cell-based; conditions: Staphylococcus; 1% glucose nutrient agar, 37° C., 24 or 48 hours; read-out: MIC
Rhodotorula glutinis = assay: Antimicrobial spectrum, MIC (Table 4); conditions: Rhodotorula glutinis, 48 h
Klebsiella pneumoniae = assay: Antimicrobial spectrum, MIC (Table 4); type: cell-based; conditions: Klebsiella pneumoniae; 1% glucose nutrient agar, 37° C., 24 or 48 hours; read-out: MIC
Serratia marcescens = assay: Antimicrobial spectrum, MIC (Table 4); type: cell-based; conditions: Serratia marcescens; 1% glucose nutrient agar, 37° C., 24 or 48 hours; read-out: MIC
Aspergillus niger = assay: Antimicrobial spectrum, MIC (Table 4); conditions: Aspergillus niger, 48 h
[6] = test system: mouse lymphocytic leukemia L1210; assay: Effect on mouse lymphocytic leukemia L1210 in vivo; conditions: DBF1 mice, 1×10^5 cells intraperitoneal; 1.5 mg/kg daily for 2 days intraperitoneal, started 3 hours after implantation
Method: When DDY mice were implanted with 1×10^5 cells of Ehrlich ascites tumor and daily intraperitoneal treatment of saframycin A at a dose of 0.5 mg/kg was initiated 24 hours after tumor implantation for 4 days, 30% of mice were cured and survived more than 30 days. With a dose of 1.0 mg/kg, 60% of mice was cured. The effects of saframycin A by intraperitoneal treatment on mouse lymphocytic leukemia L1210 and lymphoid leukemia P388 were studied with DBF1 mice. […] With P388 tumor, the inoculum size of 1×10^6 cells was employed and the treatment was initiated after 24 hours. Saframycin A at a daily dose of 0.75 mg/kg for 10 days produced T/C of 219%. The effect of saframycin A was then studied against human tumors, two lines of uterine cervical carcinoma, melanoma, oat cell carcinoma and stomach carcinoma, heterotransplanted to nude mice.

Escherichia coli = assay: Antimicrobial spectrum, MIC (Table 4); type: cell-based; conditions: Escherichia coli; 1% glucose nutrient agar, 37° C., 24 or 48 hours; read-out: MIC
Toxicity in mice = conditions: mouse, in vivo
[7] = test system: Staphylococcus aureus Smith; assay: Antimicrobial spectrum, MIC (Table 4); type: cell-based; conditions: Staphylococcus aureus; 1% glucose nutrient agar, 37° C., 24 or 48 hours; read-out: MIC
Bacillus subtilis = assay: Antimicrobial spectrum, MIC (Table 4); type: cell-based; conditions: Bacillus subtilis; 1% glucose nutrient agar, 37° C., 24 or 48 hours; read-out: MIC
[8] = test system: Corynebacterium dephtheriae; assay: Antimicrobial spectrum, MIC (Table 4); type: cell-based; conditions: Corynebacterium; 1% glucose nutrient agar, 37° C., 24 or 48 hours; read-out: MIC
Streptococcus faecalis = assay: Antimicrobial spectrum, MIC (Table 4); type: cell-based; conditions: Enterococcus faecalis; 1% glucose nutrient agar, 37° C., 24 or 48 hours; read-out: MIC
[9] = test system: Trichophyton mentagrophytes; assay: Antimicrobial spectrum, MIC (Table 4); conditions: Trichophyton mentagrophytes, 72 h
in vivo = conditions: mouse, ip

Row | Compound | MIC (Salmonella typhimurium) | MIC (Staphylococcus albus) | MIC (Candida albicans) | MIC (Mucor mucedo) | MIC (Bacillus cereus) | MIC (Corynebacterium xerosis) | MIC [1] | MIC [3] | MIC (Penicillium glaucum) | MIC (Streptococcus pyogenes) | MIC (Mycobacterium sp. 607) | MIC (Brucella abortus) | MIC (Pseudomonas aeruginosa) | MIC (Saccharomyces cerevisiae) | MIC [4] | MIC (Aspergillus oryzae) | MIC (Mycobacterium phlei) | MIC (Nocardia asteroides) | MIC [5] | MIC (Mycobacterium avium) | also measured
1 | COC1=C(C)C(=O)C2=C(C1=O)C1C3CC4=C(C(=O)C(OC)=C(C)C4=O)C(CNC(=O)C(C)=O)N3C(C#N)C(C2)N1C (stereo not drawn) [saframycin A] | 100 µg/mL (≈ 178 µM) | 0.1 µg/mL (≈ 0.178 µM) | > 100 µg/mL | > 100 µg/mL | 12.5 µg/mL (≈ 22.2 µM) | < 0.003 µg/mL | 25 µg/mL (≈ 44.4 µM) | 6.25 µg/mL (≈ 11.1 µM) | 50 µg/mL (≈ 88.9 µM) | 0.78 µg/mL (≈ 1.39 µM) | 12.5 µg/mL (≈ 22.2 µM) | 6.25 µg/mL (≈ 11.1 µM) | > 100 µg/mL | > 100 µg/mL | 6.25 µg/mL (≈ 11.1 µM) | > 100 µg/mL | 25 µg/mL (≈ 44.4 µM) | 6.25 µg/mL (≈ 11.1 µM) | 0.1 µg/mL (≈ 0.178 µM) | 12.5 µg/mL (≈ 22.2 µM) | activity against cervical carcinoma [2]: selectively active on cervical carcinoma and stomach carcinoma producing the inhibition of tumor growth and significant histological changes in tumor tissue; mice cured and survived more than 30 days (Ehrlich ascites tumor; 0.5 mg/kg daily intraperitoneal): 30%; mice cured (Ehrlich ascites tumor; 1.0 mg/kg daily intraperitoneal): 60%; activity against stomach carcinoma (stomach carcinoma): selectively active on cervical carcinoma and stomach carcinoma producing the inhibition of tumor growth and significant histological changes in tumor tissue; MIC (Micrococcus luteus): 0.05 µg/mL (≈ 0.0889 µM); MIC (Staphylococcus citreus): 0.1 µg/mL (≈ 0.178 µM); MIC (Rhodotorula glutinis): > 100 µg/mL; MIC (Klebsiella pneumoniae): 6.25 µg/mL (≈ 11.1 µM); MIC (Serratia marcescens): > 100 µg/mL; MIC (Aspergillus niger): > 100 µg/mL; T/C (survival period of treated group over survival period of control group) [6]: 183%; MIC (Escherichia coli): 50 µg/mL (≈ 88.9 µM); LD50 (Toxicity in mice; ip): 40 mg/kg; LD50 (Toxicity in mice; iv): 12 mg/kg; MIC [7]: 0.05 µg/mL (≈ 0.0889 µM); MIC (Bacillus subtilis): 0.1 µg/mL (≈ 0.178 µM); MIC [8]: < 0.003 µg/mL; MIC (Streptococcus faecalis): 6.25 µg/mL (≈ 11.1 µM); MIC [9]: > 100 µg/mL
2 | COC1=C(C)C(=O)C2=C(C1=O)C1C3CC4=C(C(=O)C(OC)=C(C)C4=O)C(CNC(=O)C(C)=O)N3CC(C2)N1C (stereo not drawn) [saframycin B] | > 100 µg/mL | 12.5 µg/mL (≈ 23.3 µM) | > 100 µg/mL | > 100 µg/mL | 100 µg/mL (≈ 186 µM) | 12.5 µg/mL (≈ 23.3 µM) | > 100 µg/mL | 25 µg/mL (≈ 46.5 µM) | > 100 µg/mL | 12.5 µg/mL (≈ 23.3 µM) | 100 µg/mL (≈ 186 µM) | 50 µg/mL (≈ 93 µM) | > 100 µg/mL | > 100 µg/mL | 100 µg/mL (≈ 186 µM) | > 100 µg/mL | 50 µg/mL (≈ 93 µM) | 50 µg/mL (≈ 93 µM) | 12.5 µg/mL (≈ 23.3 µM) | 100 µg/mL (≈ 186 µM) | MTD (in vivo): 250 mg/kg; MIC (Micrococcus luteus): 1.56 µg/mL (≈ 2.9 µM); MIC (Staphylococcus citreus): 12.5 µg/mL (≈ 23.3 µM); MIC (Rhodotorula glutinis): > 100 µg/mL; MIC (Klebsiella pneumoniae): 12.5 µg/mL (≈ 23.3 µM); MIC (Serratia marcescens): > 100 µg/mL; MIC (Aspergillus niger): > 100 µg/mL; MIC (Escherichia coli): > 100 µg/mL; MIC [7]: 1.56 µg/mL (≈ 2.9 µM); MIC (Bacillus subtilis): 25 µg/mL (≈ 46.5 µM); MIC [8]: 0.4 µg/mL (≈ 0.744 µM); MIC (Streptococcus faecalis): > 100 µg/mL; MIC [9]: > 100 µg/mL
